Reference: ChEMBL document CHEMBL1201862, “PubChem BioAssay data set” (2004)
Several values for one entry are separate records, joined by “and”; a condition that tells them apart may be missing. Equal values may be shown once.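 Cultured in 96-well plates, cells were exposed to test compound for 48 hours across five concentrations. Here, GI50 denotes the concentration required for 50% inhibition of growth.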 Activity calls are given as the source filed them. Rule as the data show it: active = GI50 up to about 1.1 µM and inactive = higher.

Legend:
Assay in all cases: NCI tumour cell line growth inhibition, 48 h
A498 = system: A498
IGROV-1 = system: IGROV-1
K562 = system: K562
LOX IMVI = system: LOX IMVI
Malme-3M = system: Malme-3M
NCI-H23 = system: NCI-H23
NCI-H460 = system: NCI-H460
RPMI-8226 = system: RPMI-8226
RXF 393 = system: RXF 393
SK-MEL-2 = system: SK-MEL-2
U-251 = system: U-251
HCT-15 = system: HCT-15
M14 = system: M14
NCI-H226 = system: NCI-H226
SNB-19 = system: SNB-19
UACC-62 = system: UACC-62

| Structure (SMILES) | GI50 (A498) | GI50 (IGROV-1) | GI50 (K562) | GI50 (LOX IMVI) | GI50 (Malme-3M) | GI50 (NCI-H23) | GI50 (NCI-H460) | GI50 (RPMI-8226) | GI50 (RXF 393) | GI50 (SK-MEL-2) | GI50 (U-251) | GI50 (HCT-15) [µM] | GI50 (M14) | GI50 (NCI-H226) | GI50 (SNB-19) | GI50 (UACC-62) |
| --- | --- | --- | --- | --- | --- | --- | --- | --- | --- | --- | --- | --- | --- | --- | --- | --- |
| Fc1ccc2c(c1)SC1Oc3ccccc3-c3c1c-2nn3-c1ccccc1 (stereo not given) | > 100 µM (inactive) | > 100 µM (inactive) | > 100 µM (inactive) | > 100 µM (inactive) | > 100 µM (inactive) | > 100 µM (inactive) | > 100 µM (inactive) | > 100 µM (inactive) | 46.9 µM (inactive) | > 100 µM (inactive) | > 100 µM (inactive) | – | – | – | – | – |
| O=C(CC1(O)C(=O)Nc2ccc(Br)cc21)c1ccc(Cl)cc1Cl (stereo not given) | > 100 µM (inactive) | 51.4 µM (inactive) | 39.6 µM (inactive) | – | 63.7 µM (inactive) | 53.2 µM (inactive) | 49.8 µM (inactive) | 22.1 µM (inactive) | 91.6 µM (inactive) | 31.7 µM (inactive) | 49.2 µM (inactive) | 69 | 34.8 µM (inactive) | 39.4 µM (inactive) | > 100 µM (inactive) | 17.2 µM (inactive) |
| Cc1ccc(S(=O)(=O)c2ccccc2[N+](=O)[O-])cc1 | > 100 µM (inactive) | > 100 µM (inactive) | 73.3 µM (inactive) | – | 85.1 µM (inactive) | 55.2 µM (inactive) | > 100 µM (inactive) | 80.7 µM (inactive) | 37.3 µM (inactive) | > 100 µM (inactive) | > 100 µM (inactive) | > 100 | > 100 µM (inactive) | > 100 µM (inactive) | – | 37.4 µM (inactive) |
| COC1OC(COC(C)=O)C(OC(C)=O)C(OC(C)=O)C1NC(=O)N(CCCl)N=O (stereo not given) | > 100 µM (inactive) | > 100 µM (inactive) | 65 µM (inactive) | 61.4 µM (inactive) and 47.3 µM (inactive) | > 100 µM (inactive) | > 100 µM (inactive) | 63 µM (inactive) and 44.6 µM (inactive) | – | > 100 µM (inactive) | – | – | – | > 100 µM (inactive) | > 100 µM (inactive) | > 100 µM (inactive) and 69.7 µM (inactive) | 26.2 µM (inactive) and 25.6 µM (inactive) |
| CCCC(=O)N[C@@H](Cc1cc(I)c(O)c(I)c1)C(=O)NCCCNCCCCNCCCNC(=O)[C@@H](N)CCCN=C(N)N | – | 29 µM (inactive) | 45.1 µM (inactive) | 94 µM (inactive) | > 100 µM (inactive) | 31.4 µM (inactive) | 34.2 µM (inactive) | 40.6 µM (inactive) | > 100 µM (inactive) | – | > 100 µM (inactive) | > 100 | 25.7 µM (inactive) | > 100 µM (inactive) | > 100 µM (inactive) | 44.9 µM (inactive) |
| CC(=O)CC(=O)ON(C)C(C)=O | – | > 100 µM (inactive) | > 100 µM (inactive) | > 100 µM (inactive) | > 100 µM (inactive) | 43.4 µM (inactive) | > 100 µM (inactive) | > 100 µM (inactive) | > 100 µM (inactive) | – | > 100 µM (inactive) | – | > 100 µM (inactive) | > 100 µM (inactive) | > 100 µM (inactive) | > 100 µM (inactive) |
| O=C1/C(=C/c2ccccc2)CN(C(=O)OCC(Cl)(Cl)Cl)C/C1=C\c1ccccc1 | 2 µM (inactive) | 3.54 µM (inactive) | 1.32 µM (inactive) | 0.792 µM (active) | 3.2 µM (inactive) | 2.25 µM (inactive) | 2.1 µM (inactive) | 0.0394 µM (active) | 1.68 µM (inactive) | 4.89 µM (inactive) | 1.68 µM (inactive) | 1.95 | 2.14 µM (inactive) | – | 3.27 µM (inactive) | 2.71 µM (inactive) |
| Clc1ccccc1C1=NN(c2ccccc2)C2c3cc(Br)ccc3OCC12 (stereo not given) | > 100 µM (inactive) | > 100 µM (inactive) | > 100 µM (inactive) | > 10 µM (inactive) | > 100 µM (inactive) | > 100 µM (inactive) | > 100 µM (inactive) | 67.9 µM (inactive) | > 100 µM (inactive) | > 100 µM (inactive) | > 100 µM (inactive) | – | – | – | > 100 µM (inactive) | – |
| CN(/C(=N\O)c1ccccc1)c1ccccc1 | – | – | – | 22.6 µM (inactive) | 39.1 µM (inactive) | 24.4 µM (inactive) | 32.5 µM (inactive) | – | – | 27.8 µM (inactive) | 17.2 µM (inactive) | – | 21.6 µM (inactive) | 21.3 µM (inactive) | 27.9 µM (inactive) | – |
| COC1CC(n2cnc3c(N)ncnc32)OC1CO (stereo not given) | – | > 100 µM (inactive) | > 100 µM (inactive) | – | > 100 µM (inactive) | 81.5 µM (inactive) | > 100 µM (inactive) | > 100 µM (inactive) | – | > 100 µM (inactive) | > 100 µM (inactive) | > 100 | > 100 µM (inactive) | > 100 µM (inactive) | > 100 µM (inactive) | > 100 µM (inactive) |
| Nc1ccc(C(=O)/C=C/c2ccccc2O)cc1 | > 100 µM (inactive) | > 100 µM (inactive) | > 100 µM (inactive) | > 100 µM (inactive) | > 100 µM (inactive) | > 100 µM (inactive) | > 100 µM (inactive) | – | > 100 µM (inactive) | > 100 µM (inactive) | > 100 µM (inactive) | > 100 | > 100 µM (inactive) | > 100 µM (inactive) | > 100 µM (inactive) | > 100 µM (inactive) |
| C/C(CC(=O)Nc1ccc(C)c(C)c1)=N\NC(N)=S | – | > 100 µM (inactive) | > 100 µM (inactive) | > 100 µM (inactive) | > 100 µM (inactive) | > 100 µM (inactive) | > 100 µM (inactive) | > 100 µM (inactive) | > 100 µM (inactive) | > 100 µM (inactive) | > 100 µM (inactive) | – | > 100 µM (inactive) | > 100 µM (inactive) | – | > 100 µM (inactive) |
| Cn1c(=O)c(C(=O)NC23CC4CC(CC(C4)C2)C3)c(O)c2ccccc21 | – | 31.8 µM (inactive) | > 100 µM (inactive) | 43.4 µM (inactive) | 21.2 µM (inactive) | 67.9 µM (inactive) | 22.3 µM (inactive) | > 100 µM (inactive) | 14.8 µM (inactive) | – | 24.5 µM (inactive) | > 100 | 28.8 µM (inactive) | 13.4 µM (inactive) | 21.2 µM (inactive) | 53.7 µM (inactive) |
| CCCSS[C@H]1NC(=O)[C@H]1NC(=O)COc1ccccc1 | 24.8 µM (inactive) | 21.1 µM (inactive) | 6.19 µM (inactive) | 16.4 µM (inactive) | 13.8 µM (inactive) | 17.7 µM (inactive) | 17.6 µM (inactive) | 14 µM (inactive) | 16.1 µM (inactive) | 17.9 µM (inactive) | 17.7 µM (inactive) | 11.7 | 12 µM (inactive) | – | > 100 µM (inactive) | 17.9 µM (inactive) |
| CCOC(=O)c1cn2c([nH]c3ccccc32)c(C#N)c1=O | > 100 µM (inactive) | > 100 µM (inactive) | > 100 µM (inactive) | 25.7 µM (inactive) | > 100 µM (inactive) | > 100 µM (inactive) | 47 µM (inactive) | – | > 100 µM (inactive) | > 100 µM (inactive) | > 100 µM (inactive) | > 100 | > 100 µM (inactive) | > 100 µM (inactive) | > 100 µM (inactive) | > 100 µM (inactive) |
